Results published in patent US8183263B2 (priority 2007, dated 2012).
pEC50: −log10 of the molar value.

Each compound was assayed on HCV replicon (assay: HCV replicon replication assay (NPT level by captured ELISA)). Conditions: Hepatitis C virus, 72 h; Huh-7 HCV replicon-containing cells, three days incubation; read-out: Activity (inhibition of HCV replicon replication).
Assay type: cell-based
Procedure: Compounds claimed herein are tested for the ability to inhibit viral replication of the Hepatitis C replicon in cultured cells in which the HCV replicon construct has been incorporated. The HCV replicon system was described by Bartenschlager, et. al (Science, 285, pp. 110-113 (1999)). The replicon system is predictive of in vivo anti-HCV activity; compounds that are active in humans uniformly evidence activity in the replicon assay.
In this assay HCV replicon containing cells are treated with different concentrations of the test compound to ascertain the ability of the test compound to suppress replication of the HCV replicon. As a positive control, HCV replicon-containing cells are treated with different concentrations of interferon alpha, a known inhibitor of HCV replication. The replicon assay system includes Neomycin Phosphotransferase (NPT) as a component of the replicon itself in order to detect the transcription of replicon gene products in the host cell. Cells in which the HCV replicon is actively replicating have high levels of NPT; the level of NPT is proportional to HCV replication. […] The NPT level of each sample is measured using a captured ELISA.
A protocol for testing compounds for the ability to inhibit viral replication of the Hepatitis C replicon cultured cells in which the replicon construct has been incorporated, follows.
The HCV replicon contains, 5′-3′, the HCV-IRES, the neomycin phosphotransferase (neo) gene, the IRES of encephalomyocarditis virus, which directs translation of HCV sequences NS3 to NS5B, and the 3′-NTR. The sequence of the HCV replicon has been deposited in GenBank (Accession no. AJ242652).
The replicon is transfected into Huh-7 cells using standard methods such as electroporation.
The equipment and materials include, but are not limited to, Huh-7 HCV replicon-containing cells, maintenance media (DMEM (Dulbecco's modified Eagle media) supplemented with 10% FBS, L-glutamine, non-essential amino acids, penicillin (100 units/ml), streptomycin (100 micrograms/ml), and 500 micrograms/ml of Geneticin (G418), screening media (DMEM supplemented with 10% FBS, L-glutamine, non-essential amino acids, penicillin (100 units/ml) and streptomycin (100 micrograms/ml)), 96 well tissue culture plates (flat bottom), 96 well plates (U bottom for drug dilution), Interferon alpha for positive control, fixation reagent (such as methanol: acetone), primary antibody (rabbit anti-NPTII), secondary antibody: Eu—N1 1, and enhancement solution.
HCV replicon-containing cells are rinsed with once PBS once; 2 mls of trypsin are then added. Cells are incubated at 37° C. in a 5% CO2 incubator for 3-5 minutes. 10 mls of complete medium is added to stop the reaction. Cells are blown gently, put into a 15 ml tube, and spun at 1200 rpm for four minutes. The trypsin/medium solution is removed and 5 mls of medium (500 ml DMEM (high glucose)) from BRL catalog #12430-054; 50 mls 10% FBS, 5% Geneticin G418 (50 mg/ml, BRL catalog #10131-035), 5 ml MEM non-essential amino acids (100×BRL #11140-050) and 5 ml pen-strep (BRL #15140-148) is added. The cells and media are mixed carefully
Cells are plated with screening medium (500 ml DMEM (BRL #21063-029), 50 ml FBS (BRL #10082-147) and 5 ml MEM non-essential amino acid (BRL #11140-050) at 6000-7500 cells/100 μl/well of 96 well plate (6-7.5×10^5 cells/10 ml/plate). Plates are placed into 37° C. 5% CO2 incubator overnight.
The following morning, drugs (test compounds or interferon alpha) are diluted in 96 well U bottom plates with media or DMSO/media, depending on the final concentration chosen for screening. Generally for 6 concentrations of each test compounds ranging from 10 micromolar to 0.03 micromolar are applied. 100 μl of the test compound dilution is placed in wells of the 96 well plate containing the HCV replicon cells. Media without drug is added to some wells as a negative controls. DMSO is known to affect cell growth. […]
In the case of `CCCCCCCCOc1ccc(Nc2nc(-c3cncc(O)c3)cs2)cc1C(F)(F)F` [Cmp 152, 5-(2-(4-(octyloxy)-3-(trifluoromethyl)phenylamino)thiazol-4-yl)pyridin-3-ol], the pEC50 was > 6.00. For `COc1ncc(-c2nc(Nc3ccc(Oc4ccc(C#N)cc4)c(C(F)(F)F)c3)sc2F)cn1` [Cmp 96, 4-(4-(5-fluoro-4-(2-methoxypyrimidin-5-yl)thiazol-2-ylamino)-2-(trifluoromethyl)phenoxy)benzonitrile], the pEC50 was > 6.00. For `CCCCCCCCc1cc2ccc(Nc3nc(-c4cccnc4)cs3)cc2o1` [Cmp 114, N-(2-octylbenzofuran-6-yl)-4-(pyridin-3-yl)thiazol-2-amine], the pEC50 was > 6.00. `c1ccc(CCc2cc3cc(Nc4nc(-c5cccnc5)cs4)ccc3o2)cc1` [Cmp 153, N-(2-phenethylbenzofuran-5-yl)-4-(pyridin-3-yl)thiazol-2-amine] was tested, and the pEC50 was > 6.00. In the case of `FC(F)(F)c1cc(Nc2nc(-c3cccnc3)cs2)ccc1Oc1ccccc1` [Cmp 47, N-(4-phenoxy-3-(trifluoromethyl)phenyl)-4-(pyridin-3-yl)thiazol-2-amine], the pEC50 was > 6.00. For `CCCCCCCCc1ccc(Nc2nc(-c3cnc(OC)nc3)c(F)s2)cc1C(F)(F)F` [Cmp 36, 5-fluoro-4-(2-methoxypyrimidin-5-yl)-N-(4-octyl-3-(trifluoromethyl)phenyl)thiazol-2-amine], the pEC50 was > 6.00. In the case of `Cc1ccc(CCCCOc2cc(Nc3nc(-c4cccnc4)cs3)ccc2C(F)(F)F)cc1` [Cmp 125, 4-(pyridin-3-yl)-N-(3-(4-p-tolylbutoxy)-4-(trifluoromethyl)phenyl)thiazol-2-amine], the pEC50 was > 6.00. In the case of `CCCCCc1nc2ccc(Nc3nc(-c4cccnc4)c(F)s3)cc2o1` [Cmp 67, N-(5-fluoro-4-(pyridin-3-yl)thiazol-2-yl)-2-pentylbenzo[d]oxazol-6-amine], the pEC50 was > 6.00. `Fc1sc(Nc2ccc(OCCCCC3CCCC3)c(C(F)(F)F)c2)nc1-c1cccnc1` [Cmp 190, N-(4-(4-cyclopentylbutoxy)-3-(trifluoromethyl)phenyl)-5-fluoro-4-(pyridin-3-yl)thiazol-2-amine] was tested, and the pEC50 was > 6.00. For `CCCCCCCCOc1cc(Nc2nc(-c3cccnc3)cs2)ccc1C(F)(F)F` [Cmp 68, N-(3-(octyloxy)-4-(trifluoromethyl)phenyl)-4-(pyridin-3-yl)thiazol-2-amine], the pEC50 was > 6.00. In the case of `CCCCCCCCc1ccc(Nc2nc(-c3cnccn3)cs2)cc1C(F)(F)F` [Cmp 161, N-(4-octyl-3-(trifluoromethyl)phenyl)-4-(pyrazin-2-yl)thiazol-2-amine], the pEC50 was > 6.00. For `COc1ncc(-c2csc(Nc3ccc(C)c(OCCOc4ccccc4)c3)n2)cn1` [Cmp 40, 4-(2-methoxypyrimidin-5-yl)-N-(4-methyl-3-(2-phenoxyethoxy)phenyl)thiazol-2-amine], the pEC50 was > 6.00. In the case of `Cc1ccc(OCCCc2ccc(Nc3nc(-c4cccnc4)cs3)cc2C(F)(F)F)cc1` [Cmp 118, 4-(pyridin-3-yl)-N-(4-(3-(p-tolyloxy)propyl)-3-(trifluoromethyl)phenyl)thiazol-2-amine], the pEC50 was > 6.00. With `Cc1ccc(OCCCCc2ccc(Nc3nc(-c4cccnc4)c(F)s3)cc2C(F)(F)F)cc1` [Cmp 116, 5-fluoro-4-(pyridin-3-yl)-N-(4-(4-(p-tolyloxy)butyl)-3-(trifluoromethyl)phenyl)thiazol-2-amine] the pEC50 was > 6.00. For `FC(F)(F)c1cc(Nc2nc(-c3cccnc3)cs2)ccc1CCCOc1ccc(Cl)cc1` [Cmp 103, N-(4-(3-(4-chlorophenoxy)propyl)-3-(trifluoromethyl)phenyl)-4-(pyridin-3-yl)thiazol-2-amine], the pEC50 was > 6.00. `CCCCCCCCOc1cc(Nc2nc(-c3cnc(OC)nc3)c(F)s2)ccc1C(F)(F)F` [Cmp 88, 5-fluoro-4-(2-methoxypyrimidin-5-yl)-N-(3-(octyloxy)-4-(trifluoromethyl)phenyl)thiazol-2-amine] was tested, and the pEC50 was > 6.00. `CCCCCCCC(C)(C)Oc1ccc(Nc2nc(-c3cccnc3)c(F)s2)cc1C(F)(F)F` [Cmp 221, 5-fluoro-N-(4-(2-methylnonan-2-yloxy)-3-(trifluoromethyl)phenyl)-4-(pyridin-3-yl)thiazol-2-amine] was tested, and the pEC50 was > 6.00. `CCCCCCCCc1ccc(Nc2nc(-c3ccc(OC(=O)[C@@H](N)C(C)C)nc3)cs2)cc1C(F)(F)F` [Cmp 135, (S)-5-(2-(4-octyl-3-(trifluoromethyl)phenylamino)thiazol-4-yl)pyridin-2-yl 2-amino-3-methylbutanoate] gave a pEC50 of 5.00 to 6.00. `Fc1sc(Nc2ccc(OCCOc3ccccc3)c(C(F)(F)F)c2)nc1-c1cccnc1` [Cmp 139, 5-fluoro-N-(4-(2-phenoxyethoxy)-3-(trifluoromethyl)phenyl)-4-(pyridin-3-yl)thiazol-2-amine] was tested, and the pEC50 was > 6.00. `Cc1ccc(CCCCOc2ccc(Nc3nc(-c4cccnc4)c(F)s3)cc2C(F)(F)F)cc1` [Cmp 107, 5-fluoro-4-(pyridin-3-yl)-N-(4-(4-p-tolylbutoxy)-3-(trifluoromethyl)phenyl)thiazol-2-amine] was tested, and the pEC50 was > 6.00. In the case of `Fc1ccc(C#CCCOc2ccc(Nc3nc(-c4cccnc4)cs3)cc2C(F)(F)F)cc1` [Cmp 24, N-(4-(4-(4-fluorophenyl)but-3-ynyloxy)-3-(trifluoromethyl)phenyl)-4-(pyridin-3-yl)thiazol-2-amine], the pEC50 was > 6.00. In the case of `CCCCCOc1cc(Nc2nc(-c3cccnc3)cs2)ccc1C(F)(F)F` [Cmp 69, N-(3-(pentyloxy)-4-(trifluoromethyl)phenyl)-4-(pyridin-3-yl)thiazol-2-amine], the pEC50 was > 6.00. For `CCCCCOc1cc(Nc2nc(-c3cnc(OC)nc3)c(F)s2)ccc1C(F)(F)F` [Cmp 77, 5-fluoro-4-(2-methoxypyrimidin-5-yl)-N-(3-(pentyloxy)-4-(trifluoromethyl)phenyl)thiazol-2-amine], the pEC50 was > 6.00. For `CCCCCCCCOc1ccc(Nc2nc(-c3cc(F)sc3C(N)=O)cs2)cc1C(F)(F)F` [Cmp 184, 5-fluoro-3-(2-(4-(octyloxy)-3-(trifluoromethyl)phenylamino)thiazol-4-yl)thiophene-2-carboxamide], the pEC50 was > 6.00. With `FC(F)(F)c1cc(Nc2nc(-c3cccnc3)cs2)ccc1OCCCCc1ccncc1` [Cmp 137, 4-(pyridin-3-yl)-N-(4-(4-(pyridin-4-yl)butoxy)-3-(trifluoromethyl)phenyl)thiazol-2-amine] the pEC50 was > 6.00. In the case of `CCCCCCCCc1ccc(Nc2nc(-c3cncc(C#N)c3)cs2)cc1C(F)(F)F` [Cmp 180, 5-(2-(4-octyl-3-(trifluoromethyl)phenylamino)thiazol-4-yl)nicotinonitrile], the pEC50 was > 6.00. `CCc1ccc(Oc2ccc(Nc3nc(-c4cccnc4)cs3)cc2C(C)=O)cc1` was tested, and the pEC50 was > 6.00. For `Cc1ccc(Nc2nc(-c3cccnc3)cs2)cc1OCC1CCCCC1` [Cmp 38, N-(3-(cyclohexylmethoxy)-4-methylphenyl)-4-(pyridin-3-yl)thiazol-2-amine], the pEC50 was > 6.00. With `CCCCCCCCOc1ccc(Nc2nc(-c3cncc(C#N)c3)c(F)s2)cc1C(F)(F)F` [Cmp 181, 5-(5-fluoro-2-(4-(octyloxy)-3-(trifluoromethyl)phenylamino)thiazol-4-yl)nicotinonitrile] the pEC50 was > 6.00. `CCCCCCCc1nc2cc(Nc3nc(-c4cnc(OC)nc4)c(F)s3)ccc2o1` [Cmp 57, N-(5-fluoro-4-(2-methoxypyrimidin-5-yl)thiazol-2-yl)-2-heptylbenzo[d]oxazol-5-amine] was tested, and the pEC50 was > 6.00. In the case of `CCCCCOc1cc(Nc2nc(-c3cnc(OC)nc3)cs2)ccc1C(F)(F)F` [Cmp 72, 4-(2-methoxypyrimidin-5-yl)-N-(3-(pentyloxy)-4-(trifluoromethyl)phenyl)thiazol-2-amine], the pEC50 was > 6.00.
